Data from US11214586B2, “Rhodamine triplet state complex and preparation and photodynamic therapy (PDT) study thereof” (SOUTHERN UNIVERSITY OF SCIENCE AND TECHNOLOGY, priority 2018, dated 2022).

Tests used:
MCF-7 cells [1] = test: Phototoxicity, CCK-8 assay and calcein-AM/PI staining; type: cell-based, human; conditions: 11-W lamp
Procedure: • 1. MCF-7 cells were seeded at 8×10^3-1×10^4 cells/well in 96 well plates then incubated for 24 h in 5% CO2 at 37° C. The stock solutions of the complexes(10 mM in DMSO) were diluted to appropriate concentrations with the complete medium and added to the cells to give final complexes concentrations (1, 2, 5, 10 μM). After incubation for 2 h, the well plate were irradiated with 11 W lamp 30 min. To achieve more uniform irradiation, the entire well plate was gently orbited on the shaker. After the irradiation, the cells were again incubated for 2 h, after which the cytotoxicity was determined by CCK8 assay and expressed as a percent of the controls (cells exposed to light in the absence of the complexes). • 2. The MCF-7 cells(500 cells/well) were seeded in eight-well chambered coverglasses (lab-Tek, Nunc, USA), and then incubated for 24 h in 5% CO2 at 37° C. Next, added to complexes(rho-bpy, rho-bpy-Pt-ph, rho-bpy-Rh-ppy, rho-bpy-Re and rho-bpy-Ir-ppy) in medium make the final concentrations of 5 μM complexes. After incubation for 2 h, the eight-well plate were irradiated with 11 W lamp 30 min. The flowing, fixed with 4% paraformaldehyde solution. After staining with calcein-AM and (Propidium iodide) PI, Leica TCS SP5 confocal laser scanning microscope (GER) was used to observe the viable and dead cells.

MCF-7 cells [2] = test: Mitochondrial membrane potential, flow-cytometry-based JC-1 assay; type: cell-based, human; conditions: 5 uM, 11 W lamp 30 min
Procedure: Mitochondrial depolarization was assessed by flow cytometry after incubation with JC-1 Molecular Probes (Thermo Fisher Scientific, USA). Briefly, The MCF-7 cells were seeded in six-well plate, incubated for 24 h in 5% CO2 at 37° C. Next, added to compounds (bpy-Rho and M-Rho) in medium make the final concentrations of 5 uM compounds. After irradiation treatment (11 W lamp 30 min). The cells were resuspended in warm PBS, and incubated with JC-1 (4 μg/ml) for 30 min at 37° C. and 5% CO2. Thereafter the cells were centrifuged, resuspended in 600 μL of PBS, and analyzed immediately on a flow cytometer (Becton Dickinson, San Jose, Calif., USA). Untreated cells were used as negative controls.

A549 = test: Selective uptake by flow cytometry; type: cell-based, human; conditions: A549, 5 μM, 2 h incubation
Procedure: (§1) Tumor cells (MCF-7/A 549/HepG2/4T1) and normal cells (MCF-10A/293T/L02/NIH-3T3) (1×10^4 cells) was cultured in six-well plate for 12 h. and then Cells were changed with a medium containing 5 μM complexes (rho-bpy, rho-bpy-Pt-ph, rho-bpy-Rh-ppy, rho-bpy-Re and rho-bpy-Ir-ppy). Cells were washed three times with PBS after 2 h of incubation, Then the cells were harvested, and the fluorescence intensity of complexes were recorded by flow cytometer.

MCF-7 = test: Selective uptake by flow cytometry; type: cell-based, human; conditions: MCF-7, 5 μM, 2 h incubation
Procedure: as §1

tumor cells = test: Selective uptake by flow cytometry, tumor cells versus normal cells; type: cell-based; conditions: among bpy-Rho and M-Rho
Procedure: as §1

[3] = Octanol-water partition coefficient
Source text: Octanol-water partition coefficients (log Po/w)^[27] of bpy-Rho and M-Rho have been measured in order to study their lipophilic/hydrophilic characters. The higher is the log Po/w value associated with the dye, the higher is its lipophilic character.

CCN(CC)c1ccc2c(-c3ccnc(-c4cc(C)ccn4)c3)c3ccc(=[N+](CC)CC)cc-3oc2c1.F[P-](F)(F)(F)(F)F.F[P-](F)(F)(F)(F)F.c1ccc(-c2cccc[c]2[Ir+][c]2ccccc2-c2ccccn2)nc1 [Ir-Rho]
cell death upon irradiation (MCF-7 cells [1]; concentration of 10 μM): Significant cell death | PDT performance, ranking (MCF-7 cells [1]; among M-Rho): best PDT performance | ratio of JC-1 aggregates/JC-1 monomers (MCF-7 cells [2]): 1.79 | contrast index (CI) (A549): higher than 2.5 | contrast index (CI) (MCF-7): higher than 2.5 | uptake efficiency and affinity to tumor cells, ranking (tumor cells): highest uptake efficiency and affinity | log Po/w [3]: −0.39
